Assay results: US20230117155A1, “FRACTION EXTRACT OF MELISSA OFFICINALIS LEAVES AND NOVEL PHARMACEUTICAL COMPOSITION INCLUDING SAME” (priority 2020, published 2023)
Entries after “also recorded” stand apart in the source; their conditions may differ.

These compounds were tested on HUVECs (human umbilical vein endothelial cells) (assay: HUVEC tube formation, angiogenesis inhibitory activity assay). Conditions: single ingredient, final concentration 50 μg/ml; FIG. 9.
Assay type: cell-based
Description: A 48-well plate was coated with 200 μl of 10% matrigel, and incubated at 4° C. After 4 hours the temperature was raised to 37° C., and 1 hour later, the test substances listed in Tables 2 and 3 below were added to a final concentration of 50 μg/ml, and then 5×10^4 HUVECs (human umbilical vein endothelial cells) were added to each well, and pictures were taken the next day.
In the case of CCOC(=O)Cc1ccc(O)c(O)c1 [EDPA, Ethyl 2-(3,4-dihydroxyphenyl) acetate], the “angiogenesis inhibitory activity in HUVEC tube formation assay” value (from here on “angiogenesis inhibitory activity”) is reported as “angiogenesis inhibitory activities; also recorded: highest angiogenesis inhibitory activity”. For COC(=O)[C@@H](Cc1ccc(O)c(O)c1)OC(=O)/C=C/c1ccc(O)c(O)c1 [RME, Rosmarinic acid methyl ester], the “angiogenesis inhibitory activity” value was “angiogenesis inhibitory activities”. For O=C(/C=C/c1ccc(O)c(O)c1)O[C@H](Cc1ccc(O)c(O)c1)C(=O)O [Rosmarinic acid], the “angiogenesis inhibitory activity” value was “angiogenesis inhibitory activities”. For O=C(O)/C=C/c1ccc(O)c(O)c1 [caffeic acid], the “angiogenesis inhibitory activity” value was “angiogenesis inhibitory activities”.
